Measurements: ChEMBL document CHEMBL1201862, “PubChem BioAssay data set” (2004)
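The compound was tested at five concentrations on cells cultured in 96-well plates, with a 48-hour exposure period. GI50: concentration for 50% inhibition of growth.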 Active and inactive are the calls of the source. Rule as the data show it: active = GI50 up to about 1.1 µM and inactive = higher.

How the values were obtained:
Assay in all cases: NCI-60 cell line screen, 48 h
SN12C = test system: SN12C
SF-268 = test system: SF-268
NCI-H23 = test system: NCI-H23
HCC 2998 = test system: HCC 2998
HCT-15 = test system: HCT-15
HOP-92 = test system: HOP-92
T47D = test system: T47D
HL-60 = test system: HL-60
UACC-257 = test system: UACC-257
CAKI-1 = test system: CAKI-1
UACC-62 = test system: UACC-62
KM12 = test system: KM12
CCRF-CEM = test system: CCRF-CEM
SK-OV-3 = test system: SK-OV-3
MDA-N = test system: MDA-N
PC-3 = test system: PC-3
SR = test system: SR
M19-MEL = test system: M19-MEL
MCF7 = test system: MCF7
HCT-116 = test system: HCT-116

Structure (SMILES)	GI50 (SN12C)	GI50 (SF-268)	GI50 (NCI-H23)	GI50 (HCC 2998)	GI50 (HCT-15) [µM]	GI50 (HOP-92)	GI50 (T47D)	GI50 (HL-60)	GI50 (UACC-257)	GI50 (CAKI-1)	GI50 (UACC-62)	GI50 (KM12)	GI50 (CCRF-CEM)	GI50 (SK-OV-3)	GI50 (MDA-N)	GI50 (PC-3)	GI50 (SR)	GI50 (M19-MEL)	GI50 (MCF7)	GI50 (HCT-116)
CO[C@@H]1[C@H](OC(=O)NC(=O)CCl)CC[C@]2(CO2)[C@H]1[C@@]1(C)O[C@@H]1CC=C(C)C [O-CHLOROACETYLCARBAMOYLFUMAGILLOL]	13.7 µM (inactive)	13.6 µM (inactive)	15.8 µM (inactive)	5.81 µM (inactive)	14.1	15.6 µM (inactive)	12.6 µM (inactive)	2.54 µM (inactive)	11 µM (inactive)	11 µM (inactive)	12 µM (inactive)	11.5 µM (inactive)	0.9 µM (active)	15.3 µM (inactive)	11.4 µM (inactive)	10.7 µM (inactive)	5.64 µM (inactive)	6.49 µM (inactive)	12.4 µM (inactive)	–
Cc1ccc(C(=O)OC(C)C)cc1/N=N/N(C)C	97.5 µM (inactive)	> 68.7 µM (inactive)	45.3 µM (inactive)	> 100 µM (inactive)	> 100	> 93.3 µM (inactive)	44.5 µM (inactive)	39.8 µM (inactive)	27.1 µM (inactive)	83 µM (inactive)	> 96.2 µM (inactive)	> 84.5 µM (inactive)	75.2 µM (inactive)	> 100 µM (inactive)	> 100 µM (inactive)	99.1 µM (inactive)	> 100 µM (inactive)	97.7 µM (inactive)	> 100 µM (inactive)	> 67.9 µM (inactive)
C[S+](C)C1(c2ccccc2)C(=O)c2ccccc2C1=O	> 100 µM (inactive)	60.3 µM (inactive)	> 65.9 µM (inactive)	17.7 µM (inactive)	> 51.1	> 60.8 µM (inactive)	29.4 µM (inactive)	> 31.6 µM (inactive)	> 64.9 µM (inactive)	> 100 µM (inactive)	> 41 µM (inactive)	> 100 µM (inactive)	> 46.9 µM (inactive)	> 100 µM (inactive)	–	76.2 µM (inactive)	> 72.8 µM (inactive)	> 100 µM (inactive)	> 100 µM (inactive)	> 54.3 µM (inactive)
C[N+](C)(C)CC1CCCC(C[N+](C)(C)C)C1=O (stereo not drawn)	1.19 µM (inactive)	7.31 µM (inactive)	2.42 µM (inactive)	0.513 µM (active)	0.308	0.441 µM (active)	1.09 µM (active)	0.272 µM (active)	0.805 µM (active)	0.984 µM (active)	4.66 µM (inactive)	4.66 µM (inactive)	0.1 µM (active)	13.7 µM (inactive)	3.49 µM (inactive)	4.61 µM (inactive)	0.158 µM (active)	0.879 µM (active)	0.506 µM (active)	0.804 µM (active)
COC1/C=C\C=C(/C)C(=O)NC2=CC(=O)C(NCCCl)=C(CC(C)CC(OC)C(O)C(C)/C=C(/C)C1OC(N)=O)C2=O (stereo not drawn)	0.069 µM (active)	0.351 µM (active)	0.0715 µM (active)	0.101 µM (active)	0.301	0.384 µM (active)	2.36 µM (inactive)	0.0281 µM (active)	0.0363 µM (active)	0.33 µM (active)	0.0405 µM (active)	0.125 µM (active)	0.0993 µM (active)	0.117 µM (active)	0.332 µM (active)	0.656 µM (active)	0.0341 µM (active)	0.0366 µM (active)	0.0333 µM (active)	0.0489 µM (active)
